Experimental data published in US7439271B2, “Reduction of hair growth” (The Gillette Company, priority 2001, dated 2008).

Experiments:
flank organ hair growth = assay: Golden Syrian hamster assay (flank organ hair mass); format: in vivo; details: topical, thirteen applications; for % Inhibition (hair mass reduction): vs vehicle treated side
Source text: Male intact Golden Syrian hamsters are considered acceptable models for human beard hair growth in that they display oval shaped flank organs, one on each side, each about 8 mm. in major diameter. These organs produce fine light colored hair typical of the animal pelage found on the body. In response to androgens the flank organs produce dark coarse hair similar to male human beard hair. To evaluate the effectiveness of a composition in reducing hair growth, the flank organs of each of a group of hamsters are depilated by applying a thioglycolate based chemical depilatory (Surgex) and/or shaved. To one organ of each animal 10 μl. of vehicle alone once a day is applied, while to the other organ of each animal an equal amount of vehicle containing the compound under evaluation is applied. After thirteen applications (one application per day for five days a week), the flank organs are shaved and the amount of recovered hair (hair mass) from each is weighed. Percent-reduction of hair growth is calculated by subtracting the hair mass (mg) value of the test compound treated side from the hair mass value of the vehicle treated side; the delta value obtained is then divided by the hair mass value of the vehicle treated side, and the resultant number is multiplied by 100.
The above-described assay will be referred to herein as the “Golden Syrian hamster” assay. Preferred compositions provide a reduction in hair growth of at least about 15% and more preferably at least about 20%, when tested in the Golden Syrian hamster assay. Compositions described in Example 1 (above) were tested in the Golden Syrian hamster assay. […] AZT, a well-characterized inhibitor of reverse transcriptase, inhibits telomerase by blocking the […] of the enzyme.

human hair follicles = assay: Human hair follicle growth assay; format: cell-based; details: day 0 to day 6
Source text: Tissue source—Human skin was obtained from a plastic surgeon as a by-product of face-lift procedures. Immediately after removal, the skin was placed in Williams E medium containing antibiotics and refrigerated. The Williams E medium is a commercially obtained medium which has been formulated with essential nutrients for maintaining viability of tissues or cells such as of hair follicle in an in-vitro environment.
Hair Follicle Isolation and Culture—Human hair follicles in growth phase (anagen) were isolated from face-lift tissue under a dissecting scope using a scalpel and watchmakers forceps. The skin was sliced into thin strips exposing 2-3 rows of follicles that could readily be dissected. Follicles were placed into 0.5 ml Williams E medium supplemented with 2 mM L-glutamine, 10 μg/ml insulin, 100 ng/ml hydrocortisone, 100 units penicillin, 0.1 mg/ml streptomycin and 0.25 μg/ml amphotericin B. The follicles were incubated in 24 well plates (1 follicle/well) at 37° C. in an atmosphere of 5% CO2 and 95% air. Hair follicles were videorecorded in the 24-well plates under the dissecting scope under a power of 20×. Typically, hair follicle lengths were measured on day 0 (day follicles were placed in culture) and again on day 7. When testing compounds, the compound was included in the culture medium from time 0 and remained in the medium throughout the course of the experiment.
In this system follicle cells differentiate to form hair fiber and increase in length at a rate not dissimilar from that of humans, in vivo. Typically, hair fiber from these in-vitro follicles grow about 0.3 mm/day. […] This model of human hair growth is capable of identifying inhibitors of hair growth. The selective telomerase inhibitors -I, -IV and -V were obtained from Calbiochem, La Jolla, Calif. The data in Tables II-VI below show dose-dependent inhibition of human hair follicle growth by various compounds.

Compound	Length Increase (mm) (human hair follicles; 100 μM)	% Inhibition of human hair growth (human hair follicles; 10 μM) [%]	Length Increase (mm) (human hair follicles; 10 μM)	% Inhibition of human hair growth (human hair follicles; 100 μM) [%]	further results
CC1COc2c(N3CCN(C)CC3)c(F)cc3c(=O)c(C(=O)O)cn1c23 (centres unmarked) [Ofloxacin, ofloxacin]	1.16 ± .12 mm	–	–	–	Left (mg): hair mass for vehicle with test compound (flank organ hair growth; dose 5%): 1.56 ± .24 mg; % Inhibition (hair mass reduction) (flank organ hair growth; dose 5%): 39 ± 7%; Length Increase (mm) (human hair follicles; 0.01 μM): 1.51 ± .24 mm; Length Increase (mm) (human hair follicles; 0.1 μM): 1.16 ± .12 mm; Length Increase (mm) (human hair follicles; 1.0 μM, separate control 1.40 ± .17 mm): 0.43 ± .11 mm; inhibition at 0.01 µM (human hair follicles; Homo sapiens, 0.01 μM): 10 ± 14%; inhibition at 0.1 µM (human hair follicles; Homo sapiens, 0.1 μM): 30 ± 7%; inhibition at 1 µM (human hair follicles; Homo sapiens, 1.0 μM, separate control 1.40 ± .17 mm): 69 ± 8%; inhibition at 100 µM (human hair follicles; Homo sapiens, 100 μM): 31 ± 7%
C[n+]1ccc(-c2c3nc(c(-c4cc[n+](C)cc4)c4ccc([nH]4)c(-c4cc[n+](C)cc4)c4nc(c(-c5cc[n+](C)cc5)c5ccc2[nH]5)C=C4)C=C3)cc1 [TMPyP4, meso-5,10,15,20-tetrakis-(N-methyl-4-pyridy)porphine]	–	–	–	–	Left (mg): hair mass for vehicle with test compound (flank organ hair growth; dose 1%): 1.73 ± .23 mg; % Inhibition (hair mass reduction) (flank organ hair growth; dose 1%): 28 ± 8%; % Inhibition of human hair growth (human hair follicles; 73 μM): 52 ± 9%; Length Increase (mm) (human hair follicles; 73 μM): .468 ± .09 mm
O=C1c2ccc3c4ccc5c6c(ccc(c7ccc(c2c37)C(=O)N1CCN1CCCCC1)c64)C(=O)N(CCN1CCCCC1)C5=O [Telomerase Inhibitor IV, N,N′-bis[2-(1-piperidino)ethyl]-3,4,9,10-perylenetetracarboxylic diimide]	0.80 ± .12 mm	10 ± 10	1.39 ± .16 mm	48 ± 8	–
C[N+]1(CCC(=O)Nc2ccc3c(c2)C(=O)c2ccc(NC(=O)CC[N+]4(C)CCCCC4CO)cc2C3=O)CCCCC1CO.[I-].[I-] (centres unmarked) [Telomerase Inhibitor I]	.286 ± .09 mm	34 ± 6	1.18 ± .10 mm	84 ± 5	–
O=C(CCN1CCCCC1)Nc1ccc2c(c1)C(=O)c1ccc(NC(=O)CCN3CCCCC3)cc1C2=O [Telomerase Inhibitor V, 2,6-bis[3-(N-piperidino)propionamido]anthracene-9,10-dione]	0.25 ± .30 mm	14 ± 8	1.32 ± .13 mm	68 ± 19	–
